Results reported in PubChem BioAssay AID1918938 (Molecular Pharmacology Branch, DTP, NCI, 2023).

Tested on: 556581-035-R-J1-PDC complex spheroid viability
Experiment: Anticancer human tumor 556581-035-R-J1-PDC patient-derived ovarian carcinoma cell line growth inhibition
Conditions: for IC50: curve of first compound; for viability, T/C: stronger effect = lower value
How it was run: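 Multicellular complex spheroids of tumor cells with human endothelial cells (HUVEC) and mesenchymal stem cells; the LSD1 inhibitor iadademstat was combined with standard-of-care or investigational agents. Top concentration at or near clinical Cmax, half-log dilutions; final DMSO ≤0.25%.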

[1] = second compound 0.1 µM, first compound 0.000949 µM
[2] = second compound 0.1 µM, first compound 0.003 µM
[3] = second compound 0.1 µM, first compound 0.00949 µM
[4] = second compound 0.1 µM, first compound 0.03 µM
[5] = second compound 0.1 µM, first compound 0.0949 µM
[6] = second compound 0.1 µM, first compound 0.3 µM
[7] = second compound 0.316 µM, first compound 0.000949 µM
[8] = second compound 0.316 µM, first compound 0.003 µM
[9] = second compound 0.316 µM, first compound 0.00949 µM
[10] = second compound 0.316 µM, first compound 0.03 µM
[11] = second compound 0.316 µM, first compound 0.0949 µM
[12] = second compound 0.316 µM, first compound 0.3 µM
[13] = second compound 1 µM, first compound 0.000949 µM
[14] = second compound 1 µM, first compound 0.003 µM
[15] = second compound 1 µM, first compound 0.00949 µM
[16] = second compound 1 µM, first compound 0.03 µM
[17] = second compound 1 µM, first compound 0.0949 µM
[18] = second compound 1 µM, first compound 0.3 µM
[19] = second compound 3.16 µM, first compound 0.000949 µM
[20] = second compound 3.16 µM, first compound 0.003 µM
[21] = second compound 3.16 µM, first compound 0.00949 µM
[22] = second compound 3.16 µM, first compound 0.03 µM
[23] = second compound 3.16 µM, first compound 0.0949 µM
[24] = second compound 3.16 µM, first compound 0.3 µM
[25] = second compound 10 µM, first compound 0.000949 µM
[26] = second compound 10 µM, first compound 0.003 µM
[27] = second compound 10 µM, first compound 0.00949 µM
[28] = second compound 10 µM, first compound 0.03 µM
[29] = second compound 10 µM, first compound 0.0949 µM
[30] = second compound 10 µM, first compound 0.3 µM
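Also: spheroids exposed to agents for seven days.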
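For viability, T/C in this document: 100% = DMSO vehicle control wells.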

CCc1c2c(nc3ccc(O)cc13)-c1cc3c(c(=O)n1C2)COC(=O)[C@]3(O)CC + NC1CC1c1ccc(-c2cccc(O)c2)cc1
IC50 (second compound 0.1 µM): < 0.949 nM | IC50 (second compound 0.316 µM): < 0.949 nM | IC50 (second compound 1 µM): < 0.949 nM | IC50 (second compound 3.16 µM): < 0.949 nM | IC50 (second compound 10 µM): < 0.949 nM | viability, T/C [1]: 14.6% | viability, T/C [2]: 11% | viability, T/C [3]: 0.89% | viability, T/C [4]: 0.24% | viability, T/C [5]: 0.2% | viability, T/C [6]: 0.32% | viability, T/C [7]: 15.4% | viability, T/C [8]: 11.4% | viability, T/C [9]: 0.92% | viability, T/C [10]: 0.23% | viability, T/C [11]: 0.17% | viability, T/C [12]: 0.28% | viability, T/C [13]: 15.4% | viability, T/C [14]: 12.1% | viability, T/C [15]: 1.74% | viability, T/C [16]: 0.23% | viability, T/C [17]: 0.19% | viability, T/C [18]: 0.27% | viability, T/C [19]: 13.8% | viability, T/C [20]: 11.7% | viability, T/C [21]: 1.62% | viability, T/C [22]: 0.26% | viability, T/C [23]: 0.27% | viability, T/C [24]: 0.73% | viability, T/C [25]: 14.4% | viability, T/C [26]: 10.7% | viability, T/C [27]: 1.64% | viability, T/C [28]: 0.89% | viability, T/C [29]: 0.3% | viability, T/C [30]: 0.37%

Nc1ccccc1NC(=O)c1ccc(CNC(=O)OCc2cccnc2)cc1 + NC1CC1c1ccc(-c2cccc(O)c2)cc1
IC50 (second compound 0.1 µM): 87.6 nM | IC50 (second compound 0.316 µM): 95.3 nM | IC50 (second compound 1 µM): 85.9 nM | IC50 (second compound 3.16 µM): 97.4 nM | IC50 (second compound 10 µM): 94 nM | viability, T/C [3]: 91.9% | viability, T/C [4]: 77.1% | viability, T/C [5]: 47.3% | viability, T/C [6]: 21.1% | viability, T/C (second compound 0.1 µM, first compound 0.949 µM): 6.12% | viability, T/C (second compound 0.1 µM, first compound 3 µM): 0.47% | viability, T/C [9]: 92.1% | viability, T/C [10]: 70.1% | viability, T/C [11]: 54.5% | viability, T/C [12]: 23.7% | viability, T/C (second compound 0.316 µM, first compound 0.949 µM): 8.22% | viability, T/C (second compound 0.316 µM, first compound 3 µM): 0.62% | viability, T/C [15]: 92.8% | viability, T/C [16]: 64.3% | viability, T/C [17]: 55.9% | viability, T/C [18]: 24.9% | viability, T/C (second compound 1 µM, first compound 0.949 µM): 9.16% | viability, T/C (second compound 1 µM, first compound 3 µM): 5.91% | viability, T/C [21]: 90.2% | viability, T/C [22]: 72.7% | viability, T/C [23]: 51.5% | viability, T/C [24]: 26.6% | viability, T/C (second compound 3.16 µM, first compound 0.949 µM): 10.4% | viability, T/C (second compound 3.16 µM, first compound 3 µM): 0.51% | viability, T/C [27]: 86.5% | viability, T/C [28]: 69.1% | viability, T/C [29]: 46.5% | viability, T/C [30]: 37.3% | viability, T/C (second compound 10 µM, first compound 0.949 µM): 10.1% | viability, T/C (second compound 10 µM, first compound 3 µM): 0.3%

Nc1ccn(C2OC(CO)C(O)C2(F)F)c(=O)n1 (stereo not given) + NC1CC1c1ccc(-c2cccc(O)c2)cc1
IC50 (second compound 0.1 µM): 1.32 nM | IC50 (second compound 0.316 µM): 1.4 nM | IC50 (second compound 1 µM): 1.94 nM | IC50 (second compound 3.16 µM): 1.75 nM | IC50 (second compound 10 µM): 1.83 nM | viability, T/C [1]: 58.8% | viability, T/C [2]: 28.2% | viability, T/C [3]: 22.4% | viability, T/C [4]: 26.8% | viability, T/C [5]: 29.3% | viability, T/C [6]: 27% | viability, T/C [7]: 60.1% | viability, T/C [8]: 30.7% | viability, T/C [9]: 24.3% | viability, T/C [10]: 25% | viability, T/C [11]: 29.3% | viability, T/C [12]: 27.1% | viability, T/C [13]: 74% | viability, T/C [14]: 36.5% | viability, T/C [15]: 24.2% | viability, T/C [16]: 25.4% | viability, T/C [17]: 29.9% | viability, T/C [18]: 22.9% | viability, T/C [19]: 71% | viability, T/C [20]: 31.3% | viability, T/C [21]: 28.9% | viability, T/C [22]: 26.5% | viability, T/C [23]: 28.5% | viability, T/C [24]: 29% | viability, T/C [25]: 67.2% | viability, T/C [26]: 37.3% | viability, T/C [27]: 34.1% | viability, T/C [28]: 29.8% | viability, T/C [29]: 37.1% | viability, T/C [30]: 34.1%

O=C(c1cc(Cc2n[nH]c(=O)c3ccccc23)ccc1F)N1CCN(C(=O)C2CC2)CC1 + NC1CC1c1ccc(-c2cccc(O)c2)cc1
IC50 (second compound 0.1 µM): > 10000 nM | IC50 (second compound 0.316 µM): > 10000 nM | IC50 (second compound 1 µM): > 10000 nM | IC50 (second compound 3.16 µM): > 10000 nM | IC50 (second compound 10 µM): 9280 nM | viability, T/C (second compound 0.1 µM, first compound 0.0316 µM): 86.1% | viability, T/C (second compound 0.1 µM, first compound 0.1 µM): 86.2% | viability, T/C (second compound 0.1 µM, first compound 0.316 µM): 93.4% | viability, T/C (second compound 0.1 µM, first compound 1 µM): 76.6% | viability, T/C (second compound 0.1 µM, first compound 3.16 µM): 77.2% | viability, T/C (second compound 0.1 µM, first compound 10 µM): 63.4% | viability, T/C (second compound 0.316 µM, first compound 0.0316 µM): 92.3% | viability, T/C (second compound 0.316 µM, first compound 0.1 µM): 83.2% | viability, T/C (second compound 0.316 µM, first compound 0.316 µM): 74.8% | viability, T/C (second compound 0.316 µM, first compound 1 µM): 90.7% | viability, T/C (second compound 0.316 µM, first compound 3.16 µM): 72.2% | viability, T/C (second compound 0.316 µM, first compound 10 µM): 67.5% | viability, T/C (second compound 1 µM, first compound 0.0316 µM): 86.8% | viability, T/C (second compound 1 µM, first compound 0.1 µM): 83.5% | viability, T/C (second compound 1 µM, first compound 0.316 µM): 79.3% | viability, T/C (second compound 1 µM, first compound 1 µM): 69.9% | viability, T/C (second compound 1 µM, first compound 3.16 µM): 61.5% | viability, T/C (second compound 1 µM, first compound 10 µM): 58.8% | viability, T/C (second compound 3.16 µM, first compound 0.0316 µM): 84.4% | viability, T/C (second compound 3.16 µM, first compound 0.1 µM): 80.2% | viability, T/C (second compound 3.16 µM, first compound 0.316 µM): 84.9% | viability, T/C (second compound 3.16 µM, first compound 1 µM): 79.5% | viability, T/C (second compound 3.16 µM, first compound 3.16 µM): 61% | viability, T/C (second compound 3.16 µM, first compound 10 µM): 57.4% | viability, T/C (second compound 10 µM, first compound 0.0316 µM): 79.1% | viability, T/C (second compound 10 µM, first compound 0.1 µM): 76% | viability, T/C (second compound 10 µM, first compound 0.316 µM): 79.2% | viability, T/C (second compound 10 µM, first compound 1 µM): 70.6% | viability, T/C (second compound 10 µM, first compound 3.16 µM): 61.6% | viability, T/C (second compound 10 µM, first compound 10 µM): 49.4%
